The numbers were not newly measured in patent US20250000096A1, “ANTIMICROBIAL COMPOSITION WITH A LOW ODOR” (EVONIK CORPORATION, priority 2021, published 2025), which cites them from elsewhere.

The conditions of this data set: background statement.

In the case of `CC(=O)O` [acetic acid], the “limit for olfactory detection” value is on record as 0.15 ppm.
